{"source": "patent US20030203963A1", "about": "“Antimicrobial agent” (priority 2001, published 2003)", "key": {"[1]": {"test_system": "Br. thermosphacta CRA78884", "assay": "Test in cooked sausage meat slurry", "assay_type": "cell-based, Brochothrix thermosphacta", "details": "500 ppm; cooked sausage meat slurry at 8° C., pH 6.2, TSM010605", "source_text": "500 g of bologna sausage meat mixture was mixed with 500 g Brain Heart Infusion broth (BHIB) to make a homogeneous slurry. The bologna sausage meat mix comprised (g per kg): lean beef 320; lean pork 202; lard 250; water 40; glucose 5; starch 155; spice mix 3.75; sodium glutamate 0.5; sodium erythorbate 0.545; sodium di-phosphate 3; NaCl 20; sodium nitrite 0.15. 200 g samples of the meat slurry were autoclaved. While the meat was still warm it was re-mixed thoroughly. When the meat had cooled it was inoculated with 2 ml of 10^5 cfu/ml spore or cell suspension, and re-mixed again. […] The meat slurry was again shaken thoroughly to ensure even mixing, an initial viable count was taken and the samples incubated at 8° C. Samples were taken at twice-weekly intervals. The pH of the sausage meat slurry was 6.2."}, "[2]": {"test_system": "Lb. sake A10", "assay": "Test in cooked minced beef slurry", "assay_type": "cell-based, Lactobacillus sake", "experimental": "1 kg of minced beef, purchased from the local butcher, was mixed with 1 litre of BHI. 200 g portion of this meat slurry was autoclaved. When the meat had cooled, the pH was recorded (pH 6.24), and each pot was inoculated with 2.0 ml of 10^5 spores or cells and the meat re-mixed thoroughly. Each inoculated 200 g pot was distributed as 3×50 g portions. To each pot 1 ml of SDW, 5% or 10% APP (Batch No. APP20010215) was added, and the meat was again mixed thoroughly. An initial viable count was performed, the meat was incubated at 8° C. and sampled twice weekly. The pH of the cooked minced beef slurry was 6.24."}, "[3]": {"test_system": "Ent. aerogenes 10102", "assay": "Bioscreen growth inhibition test", "assay_type": "cell-based, Enterobacter aerogenes", "details": "BS010510, 24 h/30, APP20010213", "experimental": "For broth cultures and Bioscreen testing most bacteria were grown in Brain Heart Infusion (BHI, Oxoid, pH 7.4). Lactobacillus sake A10 was grown in de Man, Rogosa, Sharpe medium ([…], Oxoid). Yeasts were grown in Sabouraud Liquid medium (SLM, Oxoid). Most bacteria were cultured at 30° C. Lactic acid bacteria were grown on solid medium in enriched CO2 atmosphere. Clostridium species were grown in Reinforced Clostridial Medium (RCM) at 37° C. anaerobically. Brochothrix thermosphacta fungi and yeasts were grown at 25° C. Fungi were cultured on Malt Extract Agar (MEA, Oxoid).\nAn automated Microbiology Reader Bioscreen C was used to measure growth curves of the strains in the presence and absence of APP. The Bioscreen C measures the development of turbidity (i.e. growth) kinetically by vertical photometry in 200 wells of a honeycomb microtitre plate, simultaneously. The system consists of a Bioscreen C analyser, which is an incubator and measurement unit, integrated with a PC, software (BioLink v 5.30), printer and a ‘Honeycomb 2’ cuvette multiwell plate. Growth curve data can be analysed within the BioLink software or exported to programs such as Excel.\nBroth culture media were dispensed in 270 μl volumes into the wells as directed. […] (depending on the micro-organism under investigation) with readings taken every 20 minutes after the trays were shaken. […]"}, "[4]": {"test_system": "B. nivea 163642", "assay": "Test in apple juice", "assay_type": "cell-based", "details": "apple juice (pH 3.42) at 25° C., TAJ010530", "experimental": "(§1) 8.9 ml apple juice samples (pH 3.42) were prepared and autoclaved. Batch number APP20010215 (at 138 mg/ml) was used to prepare filter-sterilised stock solutions for 1 ml addition to the juice to achieve 0, 1000, 2000 ppm APP. Tests were inoculated with 100 μl of an appropriately diluted overnight SLM broth of yeast culture or ascospore suspension of Byssochlamys spores prepared earlier. The tests were incubated at 25° C., and examined daily for signs of growth (e.g. turbidity, mycelium development)."}, "[5]": {"test_system": "Hanseniaspora uvarum CBS5074", "assay": "Test in apple juice", "assay_type": "cell-based", "details": "for Growth inhibition: apple juice (pH 3.42) at 25° C., TAJ010530", "experimental": "as §1"}, "[6]": {"test_system": "Lb. sake A10", "assay": "Test in cooked sausage meat slurry", "assay_type": "cell-based, Lactobacillus sake", "details": "for Effect on growth: cooked sausage meat slurry at 8° C., pH 6.2, TSM010605", "source_text": "500 g of bologna sausage meat mixture was mixed with 500 g Brain Heart Infusion broth (BHIB) to make a homogeneous slurry. The bologna sausage meat mix comprised (g per kg): lean beef 320; lean pork 202; lard 250; water 40; glucose 5; starch 155; spice mix 3.75; sodium glutamate 0.5; sodium erythorbate 0.545; sodium di-phosphate 3; NaCl 20; sodium nitrite 0.15. 200 g samples of the meat slurry were autoclaved. While the meat was still warm it was re-mixed thoroughly. When the meat had cooled it was inoculated with 2 ml of 10^5 cfu/ml spore or cell suspension, and re-mixed again. Each inoculated meat sample was divided into 3×50 g samples, and 1 ml of either SDW, 2.5% or 5% APP solution (batch number APP 20010215) was added to prepare meat samples containing 0, 500 and 1000 ppm APP. The meat slurry was again shaken thoroughly to ensure even mixing, an initial viable count was taken and the samples incubated at 8° C. Samples were taken at twice-weekly intervals. The pH of the sausage meat slurry was 6.2."}}, "data": [{"smiles": "O=C1CC(CO)OC=C1O", "note": "(stereo not drawn) [APP, Ascopyrone P]", "values": [{"measurement": "Effect on growth", "setting": "[1]", "result": "No significant effect with 500 and 100 ppm"}, {"measurement": "Effect on growth", "setting": "[2]; 2000 ppm, minced beef slurry at 8° C., pH 6.24, TCM010619", "result": "No effect with 2000 ppm"}, {"measurement": "No inhibition (effect on growth of target organism by 2000 ppm APP)", "setting": "[2]; Cooked minced beef slurry at 8° C. pH 6.24", "result": "Lb. sake"}, {"measurement": "APP level causing total inhibition", "setting": "[3]", "result": 4000, "unit": "ppm"}, {"measurement": "Growth inhibition", "setting": "[4]; 1000 ppm", "result": "No growth inhibition"}, {"measurement": "Growth inhibition", "setting": "[4]; 2000 ppm", "result": "No growth inhibition"}, {"measurement": "Growth inhibition", "setting": "[5]; 1000 ppm", "result": "No growth inhibition"}, {"measurement": "Growth inhibition", "setting": "[5]; 2000 ppm", "result": "No growth inhibition"}, {"measurement": "No inhibition (effect on growth of target organism by 2000 ppm APP)", "setting": "[5]; Apple juice at ambient pH 3.4", "result": "H. uvarum"}, {"measurement": "Effect on growth", "setting": "[6]; 500 ppm", "result": "No effect with 500 and 1000 ppm"}, {"measurement": "Effect on growth", "setting": "[6]; 1000 ppm", "result": "No effect with 500 and 1000 ppm"}, {"measurement": "No inhibition (effect on growth of target organism by APP)", "setting": "[6]; Cooked sausage meat slurry at 8° C. pH 6.2, (1000)", "result": "Lb. sake (1000)"}]}]}
